Assay results as given in patent US9624205B2, “Substituted 6,5-fused bicyclic heteroaryl compounds” (Epizyme, Inc., priority 2013, dated 2017).

Columns and labels:
[1] = target: wild-type PRC2 enzyme (WT EZH2) (Homo sapiens (Human), UniProt Q15910); assay: PRC2 enzyme assay on peptide substrate, wild-type EZH2; assay type: biochemical; conditions: wild-type PRC2, H3K27me0 peptide substrate
From the text: (§1) Protocol for Wild-Type and Mutant PRC2 Enzyme Assays
(§2) Peptides representative of human histone H3 residues 21-44 containing either an unmodified lysine 27 (H3K27me0) or dimethylated lysine 27 (H3K27me2) are synthesized with a C-terminal G(K-biotin) linker-affinity tag motif and a C-terminal amide cap by 21st Century Biochemicals. […] The sequences are listed below.
(§3) Human PRC2 enzymes are purified as 4-component enzyme complexes co-expressed in Spodoptera frugiperda (sf9) cells using a baculovirus expression system. […] The EED subunit contains an N-terminal FLAG tag that is used to purify the entire 4-component complex from sf9 cell lysates.
(§4) The assays are all performed in a buffer consisting of 20 mM bicine (pH=7.6), 0.5 mM DTT, 0.005% BSG and 0.002% Tween20, prepared on the day of use. Compounds in 100% DMSO (1 μL) are spotted into polypropylene 384-well V-bottom plates (Greiner) using a Platemate 2×3 outfitted with a 384-channel pipet head (Thermo). DMSO (1 μL) is added to columns 11, 12, 23, 24, rows A-H for the maximum signal control, and SAH, a known product and inhibitor of PRC2 (1 μL) is added to columns 11, 12, 23, 24, rows I-P for the minimum signal control. A cocktail (4 μL) containing the wild-type PRC2 enzyme and H3K27me0 peptide or any of the Y641 mutant enzymes and H3K27me2 peptide is added by Multidrop Combi (Thermo). The compounds are allowed to incubate with PRC2 for 30 min at 25° C., then a cocktail (10 μL) containing a mixture of non-radioactive and ^3H-SAM is added to initiate the reaction (final volume=[…]). In all cases, the final concentrations are as follows: wild-type or mutant PRC2 enzyme was 4 nM, SAH in the minimum signal control wells was 1 mM and the DMSO concentration was 1%. The assays are stopped by the addition of non-radioactive SAM (10 μL) to a final concentration of 600 μM, which dilutes the ^3H-SAM to a level where its incorporation into the peptide substrate is no longer detectable. 5 μL of the reaction in the 384-well polypropylene plate is then transferred to a 384-well Flashplate and the biotinylated peptides are allowed to bind to the streptavidin surface for at least 1 h before being washed three times with 0.1% Tween20 in a Biotek ELx405 plate washer. The plates are then read in a PerkinElmer TopCount platereader to measure the quantity of ^3H-labeled peptide bound to the Flashplate surface, measured as disintegrations per minute (dpm) or alternatively, referred to as counts per minute (cpm).
(§5) Where top and bottom are the normally allowed to float, but may be fixed at 100 or 0 respectively in a 3-parameter fit. The Hill Coefficient normally allowed to float but may also be fixed at 1 in a 3-parameter fit. Y is the % inhibition and X is the compound concentration.

[2] = target: Y641F mutant PRC2 enzyme (EZH2 Y641F) (Homo sapiens (Human), UniProt Q15910, Y641F); assay: PRC2 enzyme assay on peptide substrate, EZH2 Y641F mutant; assay type: biochemical; conditions: EZH2 Y641F PRC2, H3K27me2 peptide substrate
From the text: as §1, §2, §3, §4, §5

Y641F mutant PRC2 enzyme (EZH2 Y641F), sequence (Q15910 whole entry Y641F): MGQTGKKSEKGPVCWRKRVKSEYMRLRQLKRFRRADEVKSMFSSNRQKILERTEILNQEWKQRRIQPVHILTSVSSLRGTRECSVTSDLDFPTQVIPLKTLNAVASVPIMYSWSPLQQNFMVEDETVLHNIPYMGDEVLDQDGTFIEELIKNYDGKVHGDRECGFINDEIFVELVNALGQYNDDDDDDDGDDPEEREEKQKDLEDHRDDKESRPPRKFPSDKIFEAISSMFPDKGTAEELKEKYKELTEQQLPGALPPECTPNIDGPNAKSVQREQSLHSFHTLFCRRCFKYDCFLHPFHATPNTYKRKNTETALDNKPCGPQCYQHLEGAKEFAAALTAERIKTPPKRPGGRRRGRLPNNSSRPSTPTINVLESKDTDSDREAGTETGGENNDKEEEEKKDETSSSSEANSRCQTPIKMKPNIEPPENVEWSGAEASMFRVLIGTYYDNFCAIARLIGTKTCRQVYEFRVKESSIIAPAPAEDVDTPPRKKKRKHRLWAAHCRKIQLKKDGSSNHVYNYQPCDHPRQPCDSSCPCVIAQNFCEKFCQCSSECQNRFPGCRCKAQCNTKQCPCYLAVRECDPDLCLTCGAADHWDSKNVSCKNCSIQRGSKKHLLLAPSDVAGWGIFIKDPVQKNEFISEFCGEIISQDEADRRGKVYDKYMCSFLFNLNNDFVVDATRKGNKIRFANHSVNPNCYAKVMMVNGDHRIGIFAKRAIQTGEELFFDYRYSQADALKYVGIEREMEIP
Y641F mutant PRC2 enzyme (EZH2 Y641F), sequence (O75530 whole entry partner): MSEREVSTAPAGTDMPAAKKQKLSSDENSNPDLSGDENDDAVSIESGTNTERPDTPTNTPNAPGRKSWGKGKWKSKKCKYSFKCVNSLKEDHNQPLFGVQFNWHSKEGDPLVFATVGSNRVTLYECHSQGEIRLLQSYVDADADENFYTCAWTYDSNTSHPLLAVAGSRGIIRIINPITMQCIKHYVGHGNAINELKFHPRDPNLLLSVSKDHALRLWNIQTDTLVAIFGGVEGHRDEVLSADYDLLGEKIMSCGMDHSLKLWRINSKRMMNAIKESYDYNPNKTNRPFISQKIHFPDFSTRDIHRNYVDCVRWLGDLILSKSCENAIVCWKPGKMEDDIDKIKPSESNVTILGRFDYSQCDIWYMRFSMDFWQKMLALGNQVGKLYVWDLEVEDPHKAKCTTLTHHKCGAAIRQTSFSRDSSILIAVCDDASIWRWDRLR
Y641F mutant PRC2 enzyme (EZH2 Y641F), sequence (Q15022 whole entry partner): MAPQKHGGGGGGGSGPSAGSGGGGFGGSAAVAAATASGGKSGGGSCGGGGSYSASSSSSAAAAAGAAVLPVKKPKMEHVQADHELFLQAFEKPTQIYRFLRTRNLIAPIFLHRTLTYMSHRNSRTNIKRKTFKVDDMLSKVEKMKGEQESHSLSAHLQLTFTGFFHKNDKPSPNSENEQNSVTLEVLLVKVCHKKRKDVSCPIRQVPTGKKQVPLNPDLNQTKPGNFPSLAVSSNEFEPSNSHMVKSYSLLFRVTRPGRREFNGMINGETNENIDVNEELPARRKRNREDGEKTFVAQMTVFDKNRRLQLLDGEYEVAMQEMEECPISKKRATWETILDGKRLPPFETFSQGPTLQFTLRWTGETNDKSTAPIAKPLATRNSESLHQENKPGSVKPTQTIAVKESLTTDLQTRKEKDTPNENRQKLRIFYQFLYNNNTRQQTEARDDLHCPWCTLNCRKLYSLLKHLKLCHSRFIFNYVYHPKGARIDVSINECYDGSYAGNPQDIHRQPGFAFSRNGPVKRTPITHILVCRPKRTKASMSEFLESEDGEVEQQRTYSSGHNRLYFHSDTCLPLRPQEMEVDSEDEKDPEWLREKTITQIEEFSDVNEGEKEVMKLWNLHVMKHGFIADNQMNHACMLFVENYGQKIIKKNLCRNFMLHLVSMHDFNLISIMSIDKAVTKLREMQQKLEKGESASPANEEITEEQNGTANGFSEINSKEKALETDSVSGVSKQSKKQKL
Y641F mutant PRC2 enzyme (EZH2 Y641F), sequence (Q09028 whole entry partner): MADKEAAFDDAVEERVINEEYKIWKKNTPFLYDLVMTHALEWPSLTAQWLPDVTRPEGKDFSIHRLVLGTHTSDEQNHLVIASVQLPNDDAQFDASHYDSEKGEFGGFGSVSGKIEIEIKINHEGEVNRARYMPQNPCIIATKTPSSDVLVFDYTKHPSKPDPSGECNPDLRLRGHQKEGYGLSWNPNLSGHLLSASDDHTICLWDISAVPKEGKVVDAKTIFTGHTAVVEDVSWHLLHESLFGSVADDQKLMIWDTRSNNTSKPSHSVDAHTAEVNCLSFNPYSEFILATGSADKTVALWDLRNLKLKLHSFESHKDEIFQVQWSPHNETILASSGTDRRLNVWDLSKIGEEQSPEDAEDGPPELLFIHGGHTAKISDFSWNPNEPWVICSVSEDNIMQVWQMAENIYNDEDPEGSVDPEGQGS
wild-type PRC2 enzyme (WT EZH2), sequence (Q15910 whole entry): as the sequence (Q15910 whole entry Y641F) above, with F641Y counted along it
wild-type PRC2 enzyme (WT EZH2), sequence (O75530 whole entry partner): as the sequence (O75530 whole entry partner) above
wild-type PRC2 enzyme (WT EZH2), sequence (Q15022 whole entry partner): as the sequence (Q15022 whole entry partner) above
wild-type PRC2 enzyme (WT EZH2), sequence (Q09028 whole entry partner): as the sequence (Q09028 whole entry partner) above

Cc1c(CNC(=O)c2c(C)n(C(C)C3CCOCC3)c3ccccc23)c(=O)[nH]n1C (stereo not shown) [Compound 2, N-((1,5-dimethyl-3-oxo-2,3-dihydro-1H-pyrazol-4-yl)methyl)-2-methyl-1-(1-(tetrahydro-2H-pyran-4-yl)ethyl)-1H-indole-3-carboxamide]
IC50 [1]: > 50 µM
IC50 [2]: > 50 µM

CCC(C)n1cc(C)c2c(C(=O)NCc3c(OC)nn(CC)c3C)cc(-c3ccc(N4CCNCC4)nc3)cc21 (stereo not shown) [Compound 5, 1-(sec-butyl)-N-((1-ethyl-3-methoxy-5-methyl-1H-pyrazol-4-yl)methyl)-3-methyl-6-(6-(piperazin-1-yl)pyridin-3-yl)-1H-indole-4-carboxamide]
IC50 [1]: 22 µM
IC50 [2]: 1.99 µM

CCC(C)n1cc(C)c2c(C(=O)NCc3c(C)n(C)[nH]c3=O)cc(-c3ccc(N4CCNCC4)nc3)cc21 (stereo not shown) [Compound 4, 1-(sec-butyl)-N-((1,5-dimethyl-3-oxo-2,3-dihydro-1H-pyrazol-4-yl)methyl)-3-methyl-6-(6-(piperazin-1-yl)pyridin-3-yl)-1H-indole-4-carboxamide]
IC50 [1]: 5.63 µM
IC50 [2]: 1.1 µM

CCC(C)n1cc(C)c2c(C(=O)NCc3c(OC)nn(C)c3C)cc(-c3ccc(N4CCNCC4)nc3)cc21 (stereo not shown) [Compound 3, 1-(sec-butyl)-N-((3-methoxy-1,5-dimethyl-1H-pyrazol-4-yl)methyl)-3-methyl-6-(6-(piperazin-1-yl)pyridin-3-yl)-1H-indole-4-carboxamide]
IC50 [1]: 4.33 µM
IC50 [2]: 0.548 µM

COc1nn(C)c(C)c1CNC(=O)c1c(C)n(C(C)C2CCOCC2)c2ccccc12 (stereo not shown) [Compound 1, N-((3-methoxy-1,5-dimethyl-1H-pyrazol-4-yl)methyl)-2-methyl-1-(1-(tetrahydro-2H-pyran-4-yl)ethyl)-1H-indole-3-carboxamide]
IC50 [1]: > 50 µM
IC50 [2]: 28 µM
